The target of one assay is T1, hDUOX1_1–593 (Homo sapiens, UniProt Q9NRD9).
T1 sequence (Q9NRD9 1-593): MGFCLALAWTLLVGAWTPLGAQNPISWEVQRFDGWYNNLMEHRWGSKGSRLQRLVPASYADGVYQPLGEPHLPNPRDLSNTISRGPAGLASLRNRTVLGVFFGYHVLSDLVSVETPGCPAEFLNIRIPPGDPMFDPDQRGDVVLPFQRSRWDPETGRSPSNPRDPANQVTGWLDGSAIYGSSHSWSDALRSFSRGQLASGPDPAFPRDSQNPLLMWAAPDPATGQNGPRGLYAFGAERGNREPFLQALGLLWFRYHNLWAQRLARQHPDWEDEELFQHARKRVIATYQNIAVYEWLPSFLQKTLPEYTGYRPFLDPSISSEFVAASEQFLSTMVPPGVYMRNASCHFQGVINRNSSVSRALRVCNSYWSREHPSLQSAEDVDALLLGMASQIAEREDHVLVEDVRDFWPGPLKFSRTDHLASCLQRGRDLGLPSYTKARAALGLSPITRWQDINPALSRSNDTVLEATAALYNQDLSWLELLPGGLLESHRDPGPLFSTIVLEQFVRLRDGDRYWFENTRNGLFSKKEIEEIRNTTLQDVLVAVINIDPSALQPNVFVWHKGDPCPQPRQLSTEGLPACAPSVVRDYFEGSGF
In words: heme titration, difference absorbance spectroscopy. The format is binding.

The target of a further assay is T2, hDUOX2_1–599 (Homo sapiens, UniProt Q9NRD8).
T2 sequence (Q9NRD8 1-599): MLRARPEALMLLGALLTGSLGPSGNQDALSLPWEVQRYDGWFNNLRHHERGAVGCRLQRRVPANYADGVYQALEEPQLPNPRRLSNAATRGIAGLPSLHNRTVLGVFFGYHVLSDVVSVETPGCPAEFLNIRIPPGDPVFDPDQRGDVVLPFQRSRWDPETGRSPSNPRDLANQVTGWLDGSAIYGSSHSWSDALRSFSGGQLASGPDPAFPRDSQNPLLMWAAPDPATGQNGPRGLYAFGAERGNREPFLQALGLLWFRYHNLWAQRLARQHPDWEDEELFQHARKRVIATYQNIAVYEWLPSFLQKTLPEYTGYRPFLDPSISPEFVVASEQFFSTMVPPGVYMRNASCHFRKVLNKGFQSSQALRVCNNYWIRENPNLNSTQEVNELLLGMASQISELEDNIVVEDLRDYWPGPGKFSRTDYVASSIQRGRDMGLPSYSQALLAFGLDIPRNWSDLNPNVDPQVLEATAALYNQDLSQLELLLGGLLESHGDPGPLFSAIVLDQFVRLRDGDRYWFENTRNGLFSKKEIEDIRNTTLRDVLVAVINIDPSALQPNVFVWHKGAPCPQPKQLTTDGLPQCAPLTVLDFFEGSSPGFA
In words: heme titration, difference absorbance spectroscopy. It counts as binding.

By Kd is commonly meant the free concentration of one partner at which half of the binding sites on the other are occupied at equilibrium, for simple one-to-one binding. Turning to `C=CC1=C(C)C2=Cc3c(C=C)c(C)c4[n]3[Fe]([Cl])[n]3c(c(C)c(CCC(=O)O)c3=CC3=NC(=C4)C(C)=C3CCC(=O)O)=CC1=N2` [heme], the Kd is 2700 ± 100 nM on hDUOX1_1–593 and 2400 ± 400 nM on hDUOX2_1–599.
